The subject of the experiment is garden ants (Lasius niger). In words: Repellent effect of active compounds on treated surfaces against ants. It is filed as in vivo. The arrangement: pest or weed control: dose or concentration left out as unconfirmed. As for the experimental part:
Determination of a Repellent Effect of Active Compounds on Treated Surfaces against Ants
The tests are carried out in crystallizing dishes (Ø 30 cm, height 10 cm) using garden ants (Lasius niger). The walls of the dishes are treated with talc to prevent the test animals from escaping. The bottom of the dish is filled with a well-moistened layer of peat of a height of about 3-4 cm. At least 5 days before the beginning of the test, the dishes are populated with 300 ants which by the time the test starts will have built passages and hiding places. The dishes prepared in this manner can be used for several weeks as long as the substances examined are insecticide-free. The ants are fed with forest honey and crystalline sugar, and the feed is removed from the dishes during the tests.
Immediately before the start of the test, 2 glass plates (5×10 cm) are placed into the dish. One plate had been treated with active compound, the other remains untreated.
The activity of the ants can be monitored, for example, visually.
What is determined is the number of ants which, within a period of 15 minutes, cross the surface to be evaluated. The activity has to be so high that at least 100 contacts are achieved. If the activity is not high enough, the time for the test has to be extended accordingly. By evaluating the number of contacts on the treated and the untreated tile, a possible repellent action can be determined.
The results of the experiments with different compositions of repellent and additive are shown below. In the compositions, repellent and additive were mixed in a ratio of 100:100% by weight.

Where [1] appears, read: Lasius niger, 24 h, additive alone, after 1 day, read-out: % reduction of contacts after days.
Where [2] appears, read: Lasius niger, 24 h, IR 3535/DEET table, after 1 day, read-out: % reduction of contacts after days.
The mark [3] stands for this setting: Lasius niger, 48 h, IR 3535/DEET table, after 2 days, read-out: % reduction of contacts after days.
Where [4] appears, read: Lasius niger, 72 h, IR 3535/DEET table, after 3 days, read-out: % reduction of contacts after days.
Setting [5] is: Lasius niger, 96 h, IR 3535/DEET table, after 4 days, read-out: % reduction of contacts after days.
[6] abbreviates: Lasius niger, 168 h, IR 3535/DEET table, after 7 days, read-out: % reduction of contacts after days.
Where [7] appears, read: Lasius niger, 192 h, IR 3535/DEET table, after 8 days, read-out: % reduction of contacts after days.
Setting [8] is: Lasius niger, 240 h, IR 3535/DEET table, after 10 days, read-out: % reduction of contacts after days.

Where two headings read alike, the source gives them in different places.

With `O=Cc1ccc(O)cc1` [p-Hydroxybenzaldehyde], the pest or weed control under setting [1] came to 23%.

For the compound `COc1ccc(C=O)c(OC)c1` [2,4-Dimethoxybenzaldehyde], the pest or weed control under setting [1] was found to be 0%.

In the case of `CCCCN(CCC(=O)OCC)C(C)=O` [Ex. 1], the pest or weed control under setting [2] was 98%; the pest or weed control under setting [3] was determined as 91%; the pest or weed control under setting [4] was 29%; the pest or weed control under setting [5] is 0%; the pest or weed control under setting [6] amounted to 0%; the pest or weed control under setting [7] was 0%. The pest or weed control under setting [8] was 0%.

Turning to `OCC(O)CO` [Glycerol], the pest or weed control under setting [1] was determined as 0%.

With `CCN(CC)C(=O)c1cccc(C)c1` [compound 5, N,N-diethyl-m-toluamide], the pest or weed control by setting is: under setting [2], 100%; under setting [3], 76%; under setting [4], 0%; under setting [5], 0%; under setting [6], 27%; under setting [7], 14%. For the same compound, the pest or weed control under setting [8] is 0%.

In the case of `O=C(O)c1ccccc1O` [Salicylic acid], the pest or weed control at 500 mg/m2 (Lasius niger, 24 h, read-out: % reduction of contacts after days) worked out at 3%.

In the case of `O=C/C=C/c1ccccc1` [trans-Cinnamaldehyde], under setting [1], the pest or weed control was determined as 0%.

Regarding `COc1cc(C=O)ccc1O` [Vanillin], the pest or weed control is 63% under setting [1]; 46% (Lasius niger, 48 h, additive alone, after 2 days, read-out: % reduction of contacts after days); 65% (Lasius niger, 72 h, additive alone, after 3 days, read-out: % reduction of contacts after days); 83% (Lasius niger, 96 h, additive alone, after 4 days, read-out: % reduction of contacts after days); 51% (Lasius niger, 168 h, additive alone, after 7 days, read-out: % reduction of contacts after days); 35% (Lasius niger, 192 h, additive alone, after 8 days, read-out: % reduction of contacts after days). Further, the pest or weed control amounted to 0% (Lasius niger, 216 h, additive alone, after 9 days, read-out: % reduction of contacts after days) and 0% (Lasius niger, 240 h, additive alone, after 10 days, read-out: % reduction of contacts after days). The “repellent effect of the additive on the ants” value (additive alone) is given as “slightly repellent effect”.

(Values after patent US20020094993A1, “Compositions for repelling crawling insects” (priority 2000, published 2002).)
